Key:
OVCAR3 cells = assay: In vitro growth inhibition by LD-DTX prodrugs, cell viability assay; format: cell-based; conditions: for IC50: Homo sapiens, OVCAR-3, 48 h, Ovcar3 cells
Protocol: OVCAR3 cells were obtained from ATCC (Manassas, Va.). Cells were seeded at 12,000 cells per well on 96-well plates and treated with free docetaxel, prodrugs, lipid nanoparticle formulations with or without prodrugs at 0 to 15 μM of docetaxel for 48 h. Cell viability was determined by a colorimetric assay, based on the tetrazolium salt MIT (3-(4,5-dimethylthiazol-2-yl)-2,5-diphenyltetrazolium bromide), as described previously [Mossman 1983].

[1] = test system: immunostimulatory effects of LNP-CpG (plasma cytokines); assay: In vivo immune suppression by LD-DEX prodrugs, LNP-CpG model; parameters: species or system C57Bl/6 mice; conditions: mice, i.v., 10 mg/kg of CpG, 2 h post injection
Protocol: 6-8 Weeks old female C57Bl/6 mice (Charles River Laboratories™, Wilmington, Mass.) were injected intravenously with lipid nanoparticles containing CpG DNA oligonucleotides (10 mg/kg), mRNA (3 mg/kg) or plasmid DNA (pDNA) (1 mg/kg). Animals were euthanized 2 hours post-injection and blood was collected via intracardiac or saphenous sampling. Plasma was separated from whole blood by centrifugation and analyzed for proinflammatory cytokines using the Mesoscale Proinflammatory Multiplex™ kit (Rockville, Md.) according to manufacturer's instruction. All procedures were approved by the Animal Care Committee at the University of British Columbia and were performed in accordance with guidelines established by the Canadian Council on Animal Care.

[2] = Particle size and polydispersity of LNP containing prodrug (dynamic light scattering); format: physicochemical; conditions: PDI in brackets
Protocol: (§1) Preparation of LNP Systems: PC-Chol LNP systems were prepared by rapidly mixing POPC, cholesterol, lipid-linked prodrug and PEG-DMPE (in molar ratio of 49/39/10/2) dissolved in ethanol with phosphate-buffered saline using a T-junction mixer. Formulations were dialyzed against phosphate-buffered saline to remove residual ethanol and to raise the pH to 7.4. PC-TO and ionizable LNP systems were prepared in the same way except that the lipid compositions for these systems are: POPC, triolein, lipid-linked prodrug and PEG-DSPE (in molar ration of 19/70/10/1), and ionizable lipid, DSPC, cholesterol, lipid-linked prodrug and PEG-DMPE (in molar ration of 40/10/38.5/10/1.5), respectively.
Characterization of LNP: Particle size was determined by dynamic light scattering using a Malvern Zetasizer Nano ZS™ (Malvern, UK) following buffer exchange into phosphate-buffered saline. Number-weighted size and distribution data was used. Lipid concentrations were determined by measuring total cholesterol using the Cholesterol E enzymatic assay kit from Wako Chemicals USA™ (Richmond, Va.). The morphology of LNP formulations containing LD-DEX was analyzed by cryogenic-transmission electron microscopy (cryoTEM) as described previously [Leung et al. (2012)].

[3] = In vitro degradation of lipid-linked prodrugs in LNP, mouse plasma; format: in vitro ADME; conditions: LNP; for prodrug cleavage/degradation after 1 h in plasma: 37° C., mouse plasma
Protocol: (§2) Quantitation of prodrugs by HPLC: LD-DEX/DTX were quantified by ultra high-pressure liquid chromatography (UHPLC) using a Waters Acquity™ UPLC system equipped with a photodiode array detector (PDA) and evaporative light scattering (ELS) detector; Empower™ data acquisition software version 3.0 was used (Waters™, USA). Separations were performed using a Waters Acquity™ BEH C18 column (1.7 μm, 2.1×100 mm) at a flow rate of 0.5 ml/min, with mobile phases A and B consisting of methanol/10 mM ammonium bicarbonate (80/20% v/v) and methanol/acetonitrile (80/20% v/v), respectively. The mobile phases were delivered at a programmed linear gradient (45%-80% B in 1 min then to 99% B at 2 min) at a column temperature of 55° C. The analyte was measured by PDA (at a wavelength of 239 nm) and ELS detector against calibration standard curves. For the analysis of LD-DEX/DTX breakdown to active compound, linear gradients of 20/80% to 100/0% (acetonitrile/water, v/v) over 7 min were used.
To determine the biodegradability of the dexamethasone or docetaxel prodrugs (LD-DEX/DTX), 1 mg/mL LNP was incubated in mouse plasma (Cedarlane™, Burlington, Ontario) or PBS supplemented with 10 U of purified esterase (Sigma-Aldrich™, St. […] Post incubation, four volumes of chloroform/methanol (2:1) was added and the mixture was vortex mixed. Samples were centrifuged at 13,000 g for 5 minutes and the upper phase was discarded. The remaining organic phase was dried down under vacuum and the resulting lipid extract was dissolved in methanol/acetonitrile (1:1). Quantity of parent LD-DEX/DTX compound was determined by ultra high pressure liquid chromatography on a Waters Acquity™ H-Class UPLC System™ equipped with a BEH C18 column and a photodiode array detector.

[4] = Prodrug incorporation (entrapment) in lipid nanoparticles, UHPLC; format: physicochemical
Protocol: as §1, §2

[5] = test system: IL1β expression in RAW 264.7 mouse macrophage cells; assay: In vitro immune suppression, LPS-treated RAW 264.7 cells, IL1β qRT-PCR; format: cell-based; conditions: 2 ng/mL LPS, 4 h
Protocol: RAW 264.7 mouse macrophage cells were seeded at 250,000 cells per mL on 12-well plates and incubated at 37° C. overnight. Lipopolysaccharide (LPS) was dissolved in phosphate buffered saline at a concentration of 2 μg/ml. Cells were treated with lipid nanoparticles containing LD-DEX prodrugs and 2 ng/ml of LPS for 4 hours. This LPS concentration was chosen due to its ability to increase IL1β expression approximately 1000 times as compared to untreated cells. At the end of the incubation period, culture medium was aspirated and cellular RNA was extracted using the Purelink RNA™ extraction kit according to manufacturer's protocol (Life Technologies™, Burlington, ON). The concentration of extracted RNA was determined using a Nanodrop Lite™ (Thermo Fisher™). 1 μg of RNA was converted to cDNA using the High Capacity cDNA Reverse Transcription kit (Life Technologies™, Burlington, ON). In order to validate the sample preparation, a no template control and a negative reverse transcriptase control were included. The cDNA was then quantified using comparative real-time qPCR where the Ct (threshold cycle) values are converted to relative quantity using the 2-ΔΔCT method. The primer-probe sets were designed to bind to cDNA of Interleukin-1β(IL1β). Hypoxanthine-guanine phosphoribosyltransferase (HPRT) was chosen as the endogenous normalizer gene, which is known to maintain consistent levels with varying treatments.

[6] = test system: purified porcine esterase; assay: In vitro degradation of lipid-linked prodrugs in LNP, purified esterase in PBS; conditions: LNP, 24 h incubation
[7] = LD-DEX prodrug in ionizable LNP
[8] = LD-DTX prodrug in ionizable LNP

Compound	suppression of cancer cell proliferation / IC50 comparison (in words) (OVCAR3 cells; OVCAR3, 0 to 15 μM of docetaxel, 48 h)	plasma TNFα and KC/GRO levels versus control LNP-CpG [1]	Particle size (PDI) PC-Chol LNP ([2]; LD-DEX prodrug in PC-Chol LNP)	Particle size (PDI) [ionizable LNP] [2, 7]	prodrug cleavage/degradation after 1 h in plasma [3]	% Entrapment PC-Chol LNP ([4]; LD-DEX prodrug in PC-Chol LNP) [%]	% Entrapment [ionizable LNP] [4, 7]	input amount incorporated into the final lipid nanoparticle preparation ([4]; of the input amount)	IL1β expression versus control LNP without prodrug [5]	IC50 (OVCAR3 cells; Free drugs) [nM]	IC50 (OVCAR3 cells; PC-Chol LNP) [nM]	IC50 (OVCAR3 cells; PC-TO LNP) [nM]	IC50 (OVCAR3 cells; ionizable LNP) [nM]	Particle size (PDI) PC-Chol LNP ([2]; LD-DTX prodrug in PC-Chol LNP)	Particle size (PDI) [ionizable LNP] [2, 8]	% Entrapment PC-Chol LNP ([4]; LD-DTX prodrug in PC-Chol LNP) [%]	% Entrapment [ionizable LNP] [4, 8]	release of active drug (UPLC chromatogram) in purified esterase [6]	release of active drug (UPLC chromatogram) in mouse plasma ([3]; 24 h incubation)
CC(=O)O[C@@]12CO[C@@H]1C[C@H](O)[C@@]1(C)C(=O)[C@H](O)C3=C(C)[C@@H](OC(=O)[C@H](O)[C@@H](NC(=O)OC(C)(C)C)c4ccccc4)C[C@@](O)([C@@H](OC(=O)c4ccccc4)[C@H]21)C3(C)C [Docetaxel, reference compound]	much lower than all the other test articles	–	–	–	–	–	–	–	–	–	–	–	–	–	–	–	–	–	–
CCCCC/C=C\C/C=C\CCCCCCCC(=O)OC(COC(=O)CCC(=O)OCC(=O)[C@@]1(O)[C@H](C)C[C@H]2[C@@H]3CCC4=CC(=O)C=C[C@]4(C)[C@@]3(F)[C@@H](O)C[C@@]21C)CN(C)C (some centres unmarked) [LD01-DEX]	–	marked reduction in cytokine levels	77 (0.06) nm	[51 (0.04)] nm	significant cleavage	72	[65] %	65-72 mol %	–	–	–	–	–	–	–	–	–	–	–
CCCCC/C=C\C/C=C\CCCCCCCCOCCCCSCC(=O)[C@@]1(O)[C@H](C)C[C@H]2[C@@H]3CCC4=CC(=O)C=C[C@]4(C)[C@@]3(F)[C@@H](O)C[C@@]21C [LD07-DEX, (8S,9R,10S,11S,13S,14S,16R,17R)-9-fluoro-11,17-dihydroxy-10,13,16-trimethyl-17-(2-((4-(linoleyloxy)butyl)thio)acetyl)-6,7,8,9,10,11,12,13,14,15,16,17-dodecahydro-3H-cyclopenta[a]phenanthren-3-one]	–	did not exhibit any immunosuppressive effects	56 (0.03) nm	[47 (0.04)] nm	no degradation	90	[88] %	–	IL1β expression at a similar level to control	–	–	–	–	–	–	–	–	–	–
CCCCC/C=C\C/C=C\CCCCCCCC(=O)OCC(COC(=O)CCC(=O)O[C@@H](C(=O)O[C@H]1C[C@@]2(O)[C@@H](OC(=O)c3ccccc3)[C@@H]3[C@]4(OC(C)=O)CO[C@@H]4C[C@H](O)[C@@]3(C)C(=O)[C@H](O)C(=C1C)C2(C)C)[C@@H](NC(=O)OC(C)(C)C)c1ccccc1)OC(=O)CCCCCCC/C=C\C/C=C\CCCCC (stereo partly drawn) [LD10-DTX, (2R,3S)-1-(((2aR,4S,4aS,6R,9S,11S,12S,12aR,12bS)-12b-acetoxy-12-(benzoyloxy)-4,6,11-trihydroxy-4a,8,13,13-tetramethyl-5-oxo-2a,3,4,4a,5,6,9,10,11,12,12a,12b-dodecahydro-1H-7,11-methanocyclodeca[3,4]benzo[1,2-b]oxet-9-yl)oxy)-3-((tert-butoxycarbonyl)amino)-1-oxo-3-phenylpropan-2-yl (2,3-bis((9Z,12Z)-octadeca-9,12-dienoyloxy)propyl) succinate]	–	–	–	–	largely not degraded	–	–	–	–	156	374	791	133	58 (0.06) nm	[42 (0.06)] nm	95	[100] %	–	–
CCCCCCCCCCCCCC(=O)OCC(COC(=O)CCC(=O)O[C@@H](C(=O)O[C@H]1C[C@@]2(O)[C@@H](OC(=O)c3ccccc3)[C@@H]3[C@]4(OC(C)=O)CO[C@@H]4C[C@H](O)[C@@]3(C)C(=O)[C@H](O)C(=C1C)C2(C)C)[C@@H](NC(=O)OC(C)(C)C)c1ccccc1)OC(=O)CCCCCCCCCCCCC (stereo partly drawn) [LD22-DTX, (2R,3S)-1-(((2aR,4S,4aS,6R,9S,11S,12S,12aR,12bS)-12b-acetoxy-12-(benzoyloxy)-4,6,11-trihydroxy-4a,8,13,13-tetramethyl-5-oxo-2a,3,4,4a,5,6,9,10,11,12,12a,12b-dodecahydro-1H-7,11-methanocyclodeca[3,4]benzo[1,2-b]oxet-9-yl)oxy)-3-((tert-butoxycarbonyl)amino)-1-oxo-3-phenylpropan-2-yl (2,3-bis(tetradecanoyloxy)propyl) succinate]	–	–	–	–	largely not degraded	–	–	–	–	51.7	~1550	315	93	65 (0.04) nm	[39 (0.07)] nm	93	[100] %	active docetaxel (DTX) was observed	active docetaxel (DTX) was observed
CCCCCCCC/C=C\CCCCCCCC(=O)OCC(COC(=O)CCC(=O)O[C@@H](C(=O)O[C@H]1C[C@@]2(O)[C@@H](OC(=O)c3ccccc3)[C@@H]3[C@]4(OC(C)=O)CO[C@@H]4C[C@H](O)[C@@]3(C)C(=O)[C@H](O)C(=C1C)C2(C)C)[C@@H](NC(=O)OC(C)(C)C)c1ccccc1)OC(=O)CCCCCCC/C=C\CCCCCCCC (stereo partly drawn) [LD23-DTX, (2R,3S)-1-(((2aR,4S,4aS,6R,9S,11S,12S,12aR,12bS)-12b-acetoxy-12-(benzoyloxy)-4,6,11-trihydroxy-4a,8,13,13-tetramethyl-5-oxo-2a,3,4,4a,5,6,9,10,11,12,12a,12b-dodecahydro-1H-7,11-methanocydodeca[3,4]benzo[1,2-b]oxet-9-yl)oxy)-3-((tert-butoxycarbonyl)amino)-1-oxo-3-phenylpropan-2-yl (2,3-bis(oleoyloxy)propyl) succinate]	–	–	–	–	largely not degraded	–	–	–	–	64.5	~15600	692	99.9	60 (0.05) nm	[39 (0.06)] nm	100	[100] %	–	–

Source: patent US10780174B2, “Lipid-linked prodrugs” (The University of British Columbia, priority 2015, dated 2020)
